Reference: article PMC11761369 (bioRxiv, 2025)

Legend:
BBB cells = assay: UPLC-MS of PepTGN and analogs after incubation with BBB cells; format: cell-based; conditions: UPLC-MS (Figure 6C)
[1] = format: cell-based; conditions: after 30 minutes incubation; overlaying with ER-marker (ERp57/ERp60 antibody)
bEND.3 cell line = assay: μMap profiling of PepTGN intracellular interactors; format: cell-based, mouse; conditions: 37 °C, 1 h incubation
[2] = system: clathrin-mediated endocytosis; assay: Microscopy of AA3H entry with inhibition of clathrin-mediated endocytosis; format: cell-based; conditions: Pitstop2 40 μM
CALCRL = CALCRL (Homo sapiens, UniProt O60894+Q16602); assay: Flow cytometry of FITC-labeled PepTGN internalization with blocking agents; format: cell-based; conditions: compared to non-binding isotype control
Chain of CALCRL (Q16602 23-461): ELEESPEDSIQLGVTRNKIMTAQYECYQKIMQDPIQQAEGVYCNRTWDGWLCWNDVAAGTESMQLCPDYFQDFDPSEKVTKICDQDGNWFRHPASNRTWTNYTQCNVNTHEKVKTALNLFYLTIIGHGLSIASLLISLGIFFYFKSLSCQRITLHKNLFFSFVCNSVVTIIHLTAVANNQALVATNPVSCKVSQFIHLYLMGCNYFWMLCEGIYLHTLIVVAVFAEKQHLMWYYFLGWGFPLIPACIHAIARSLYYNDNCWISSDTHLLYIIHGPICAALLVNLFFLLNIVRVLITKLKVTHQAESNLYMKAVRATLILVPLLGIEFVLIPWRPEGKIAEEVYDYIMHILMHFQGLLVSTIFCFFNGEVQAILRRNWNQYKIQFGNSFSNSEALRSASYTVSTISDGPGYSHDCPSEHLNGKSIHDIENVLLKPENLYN
Chain of CALCRL (O60894 27-148): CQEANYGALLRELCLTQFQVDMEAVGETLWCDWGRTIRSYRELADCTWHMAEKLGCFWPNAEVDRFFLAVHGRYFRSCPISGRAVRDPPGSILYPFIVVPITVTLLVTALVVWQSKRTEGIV

## AGNYKALHPHNG [T12A analog]
BBB cells
  +322 mass shift after incubation with BBB cells: did not display

## TGNYKALHPHNG [PepTGN]
[1]
  cellular localization: distinct puncta
bEND.3 cell line
  interactor genes associated to ER and Golgi trafficking and secretory pathways: about 30%

## O=C1NC(=NS(=O)(=O)c2cccc3ccccc23)S/C1=C\c1ccc(Br)cc1 [Pitstop2]
[2]
  effect on AA3H internalization: disrupted

B1: Erenumab: monoclonal antibody used in migraine therapy that targets CALCRL and inhibits CGRP binding (antibody, chains of the INN, looked up, V domains shown)
VH: QVQLVESGGGVVQPGRSLRLSCAASGFTFSSFGMHWVRQAPGKGLEWVAVISFDGSIKYSVDSVKGRFTISRDNSKNTLFLQMNSLRAEDTAVYYCARDRLNYYDSSGYYHYKYYGMAVWGQGTTVTVSS
VL: QSVLTQPPSVSAAPGQKVTISCSGSSSNIGNNYVSWYQQLPGTAPKLLIYDNNKRPSGIPDRFSGSKSGTSTTLGITGLQTGDEADYYCGTWDSRLSAVVFGGGTKLTVL
CALCRL
  effect of pre-incubation on PepTGN internalization: significantly decreased
